Measured values as given in patent US8022080B2, “Small molecules with antiprotozoal activity” (Radix Pharmaceuticals Inc., priority 2009, dated 2011).
Like-named read-outs stand apart in the source and are kept apart here.

Key:
[1] = test system: P. berghei; assay: Blood schizontocidal test in mice, oral; format: in vivo; settings: for toxicity in mice: oral, at the highest dose tested
Procedure: Drugs were mixed in 0.5% hydroxycellulose 0.1% Tween 80 and administered orally b.i.d. on days 3, 4 and 5 postinfection. CD-1 male or female mice, 5 weeks of age, were infected with 5×10^4 parasitized erythrocytes of Plasmodium berghei KBG-173 mm strain. Blood films were taken on day +6 and weekly thereafter until day +60. Parasitemias were calculated and SD90 value (dose suppressing 90% of the parasites in treated groups compared with the infected non-treated controls) on day +6 postinfection. Mortality data was tabulated for 60 days at which time all mice surviving that were blood film negative were considered cured. […]

[2] = test system: human adult liver epithelial cells (THLE-3); assay: In vitro toxicity evaluation, Sulforhodamine B; format: cell-based; settings: for IC50: Homo sapiens, read-out: IC50 THLE-3; for Selectivity IC50 (THLE-3)/IC50 (D6): ratio THLE-3 vs D6
Procedure: (§1) For in vitro toxicological studies, the following cell line was chosen: human adult liver epithelial cells (THLE-3). THLE-3 cells express phenotypic characteristics of normal adult liver epithelial cells and constitute a valuable model for pharmacotoxicological studies.
Human adult liver epithelial cells (THLE-3) was maintained in tissue culture flasks in Waymouth's medium (Gibco, N.Y.) supplemented with 10% fetal bovine serum. Toxicity tests were performed in 96-well tissue culture plates using the protein-binding dye Sulforhodamine B. Test compounds were serially diluted and added to empty wells of the 96-well plate. THLE-3 cells in their culture medium were immediately seeded into the wells. Solvent blanks (no compound) were run in each test. After 72 hours under culture conditions cells were fixed to the plate by layering 50% TCA (4° C.) over the growth media in each well to produce a final TCA concentration of 10%. After incubating for one hour at 4° C., cultures were washed five times with tap water and left air-dried. Wells were stained for 30 min. with 0.4% (w/v) SRB in 1% acetic acid and washed four times with 1% acetic acid. Cultures were left air-dried and bound dye was solubilized with 10 mM Tris base (pH 10.5) for 15 min. on a gyratory shaker at room temperature. A Spectra MAX Plus Microtiter Plate Reader (Molecular Devices, Menlo Park, Calif.) was used to measure the optical density at wavelengths of 490-530 nm.

[3] = test system: Plasmodium berghei KBG-173; assay: Prophylactic test in mice, oral; format: in vivo; settings: for Mice infected and treated/Mice surviving day 60: oral; for protection from malaria: single dose of 0.5 mg/kg within 2 days pre-infection through 2 days post-infection
Procedure: Compounds were tested for oral prophylactic activity.
CD-I male or female mice, 5 weeks of age, were infected with 5×10^4 parasitized erythrocytes of Plasmodium berghei KBG-173 mm strain. […]

[4] = test system: P. falciparum D6 (chloroquine sensitive); assay: In vitro anti-malarial activity, [3H]hypoxanthine uptake, D6 clone; format: cell-based, Plasmodium falciparum
Source text: as §1
(§2) Two P. falciparum malaria parasite clones, W2 and D6, from Malaria Research and Reference Reagent Resource Center (MR4), were utilized in susceptibility testing. […] Test compounds were initially dissolved in DMSO and diluted 400 fold in RPMI 1640 culture medium supplemented with 25 mM Hepes, 32 mM NaHCO3 and 10% Albumax I (Gibco, N.Y.). These solutions were subsequently serially diluted two-fold with a Beckman Biomek® 1000 Robot (Fullerton, Calif.) over 11 different concentrations. The parasites were exposed to serial dilutions of each compound for 48 hrs and incubated at 37° C. with 5% O2, 5% CO2 and 90% N2 prior to the addition of [^3H]hypoxanthine. After a further incubation of 18 hrs, parasite DNA was harvested from each microtiter well using Packard Filtermate™ 196 Harvester (Meriden, Conn.) onto glass filters. Uptake of [^3H]hypoxanthine was measured with a Packard TopCount Liquid Scintillation Counter (Packard Instrument Co.).

[5] = test system: P. falciparum W2 (chloroquine resistant); assay: In vitro anti-malarial activity, [3H]hypoxanthine uptake, W2 clone; format: cell-based, Plasmodium falciparum
Source text: as §1, §2

[6] = test system: P. berghei; assay: Suppressive blood schizontocidal activity in mice, subcutaneous single dose; format: in vivo; settings: 72 h after infection
Procedure: Mice were treated with a single dose of the compound administered subcutaneously 72 h after infection. Number of cures is the number of mice surviving, out of five, 60 days postinfection.

[7] = oral dose 0.25 mg/kg/day (total dose 0.75 mg/kg)
[8] = oral dose 1.0 mg/kg/day (total dose 3.0 mg/kg)
[9] = oral dose 4.0 mg/kg/day (total dose 12 mg/kg)
[10] = oral dose 16 mg/kg/day (total dose 48 mg/kg)
[11] = oral dose 64 mg/kg/day (total dose 192 mg/kg)
[12] = THLE3, THLE-3 cells, 72 hours, cell growth inhibition
[13] = day of treatment 1, dose 0.5 mg/kg
[14] = day of treatment 1, dose 2 mg/kg
[15] = day of treatment 1, dose 8 mg/kg
[16] = day of treatment 1, dose 32 mg/kg
[17] = day of treatment 2, dose 0.5 mg/kg
[18] = day of treatment 2, dose 2 mg/kg
[19] = day of treatment 2, dose 8 mg/kg
[20] = day of treatment 2, dose 32 mg/kg
[21] = day of treatment −1, dose 0.5 mg/kg
[22] = day of treatment −1, dose 2 mg/kg
[23] = day of treatment −1, dose 8 mg/kg
[24] = day of treatment −1, dose 32 mg/kg
[25] = day of treatment −2, dose 0.5 mg/kg
[26] = day of treatment −2, dose 2 mg/kg
[27] = day of treatment −2, dose 8 mg/kg
[28] = day of treatment −2, dose 32 mg/kg
[29] = Plasmodium falciparum, D6; read-out: IC50 D6 Strain
[30] = Plasmodium falciparum, W2; read-out: IC50 W2 Strain
[31] = subcutaneous single dose 1 mg/kg
[32] = subcutaneous single dose 2 mg/kg
[33] = subcutaneous single dose 4 mg/kg
[34] = subcutaneous single dose 8 mg/kg
[35] = subcutaneous single dose 16 mg/kg
[36] = subcutaneous single dose 32 mg/kg
[37] = subcutaneous single dose 64 mg/kg
[38] = subcutaneous single dose 128 mg/kg

CC[C@@]12C=Cc3nc4c(OC)c(OC)c5c(c4cc3C1N(C(C)=O)CC1O[C@@H]12)C(=O)[C@](C)(C(=O)OC)N5C(C)=O (some centres unmarked) [Formula II]
0.21 ng/mL: IC50 [4, 29]
7.3 × 10^4: Selectivity IC50 (THLE-3)/IC50 (D6) [2]
completely protected from malaria: protection from malaria [3]
5/5: Mice infected and treated/Mice surviving day 60 [3, 13] | Mice infected and treated/Mice surviving day 60 [3, 14] | Mice infected and treated/Mice surviving day 60 [3, 15] | Mice infected and treated/Mice surviving day 60 [3, 16] | Mice infected and treated/Mice surviving day 60 [3, 17] | Mice infected and treated/Mice surviving day 60 [3, 18] | Mice infected and treated/Mice surviving day 60 [3, 19] | Mice infected and treated/Mice surviving day 60 [3, 20] | Mice infected and treated/Mice surviving day 60 [3, 21] | Mice infected and treated/Mice surviving day 60 [3, 22] | Mice infected and treated/Mice surviving day 60 [3, 23] | Mice infected and treated/Mice surviving day 60 [3, 24] | Mice infected and treated/Mice surviving day 60 [3, 25] | Mice infected and treated/Mice surviving day 60 [3, 26] | Mice infected and treated/Mice surviving day 60 [3, 27] | Mice infected and treated/Mice surviving day 60 [3, 28] | Mice surviving 60 days/Mice infected and treated [6, 32] | Mice surviving 60 days/Mice infected and treated [6, 33] | Mice surviving 60 days/Mice infected and treated [6, 34] | Mice surviving 60 days/Mice infected and treated [6, 35] | Mice surviving 60 days/Mice infected and treated [6, 36] | Mice surviving 60 days/Mice infected and treated [6, 37] | Mice surviving 60 days/Mice infected and treated [6, 38]
0.23 ng/mL: IC50 [5, 30]
15400 ng/mL: IC50 [2, 12]
4/5: Mice surviving 60 days/Mice infected and treated [6, 31]
7/7: Mice surviving 60 days/Mice infected and treated [1, 7] | Mice surviving 60 days/Mice infected and treated [1, 8] | Mice surviving 60 days/Mice infected and treated [1, 9] | Mice surviving 60 days/Mice infected and treated [1, 10] | Mice surviving 60 days/Mice infected and treated [1, 11]
no mice showed toxicity: toxicity in mice [1]
equally potent inhibitory activity: inhibitory activity against chloroquine sensitive malaria strain (D-6), in words ([4]; D-6 strain) | inhibitory activity against chloroquine resistant malaria strain (W-2), in words ([5]; W-2 strain)

CC[C@]12C=CCN(C(C)=O)C1c1cc3c(nc1C=C2)c(OC)c(OC)c1c3cc(C(=O)SC)n1C(C)=O (some centres unmarked) [Formula I]
5/5: Mice infected and treated/Mice surviving day 60 [3, 13] | Mice infected and treated/Mice surviving day 60 [3, 14] | Mice infected and treated/Mice surviving day 60 [3, 15] | Mice infected and treated/Mice surviving day 60 [3, 16] | Mice infected and treated/Mice surviving day 60 [3, 17] | Mice infected and treated/Mice surviving day 60 [3, 18] | Mice infected and treated/Mice surviving day 60 [3, 19] | Mice infected and treated/Mice surviving day 60 [3, 20] | Mice infected and treated/Mice surviving day 60 [3, 21] | Mice infected and treated/Mice surviving day 60 [3, 22] | Mice infected and treated/Mice surviving day 60 [3, 23] | Mice infected and treated/Mice surviving day 60 [3, 24] | Mice infected and treated/Mice surviving day 60 [3, 25] | Mice infected and treated/Mice surviving day 60 [3, 26] | Mice infected and treated/Mice surviving day 60 [3, 27] | Mice infected and treated/Mice surviving day 60 [3, 28] | Mice surviving 60 days/Mice infected and treated [6, 32] | Mice surviving 60 days/Mice infected and treated [6, 33] | Mice surviving 60 days/Mice infected and treated [6, 34] | Mice surviving 60 days/Mice infected and treated [6, 35] | Mice surviving 60 days/Mice infected and treated [6, 36] | Mice surviving 60 days/Mice infected and treated [6, 37] | Mice surviving 60 days/Mice infected and treated [6, 38]
0.29 ng/mL: IC50 [5, 30]
completely protected from malaria: protection from malaria [3]
equally potent inhibitory activity: inhibitory activity against chloroquine sensitive malaria strain (D-6), in words ([4]; D-6 strain) | inhibitory activity against chloroquine resistant malaria strain (W-2), in words ([5]; W-2 strain)
5.3 × 10^4: Selectivity IC50 (THLE-3)/IC50 (D6) [2]
4/5: Mice surviving 60 days/Mice infected and treated [6, 31]
no mice showed toxicity: toxicity in mice [1]
0.32 ng/mL: IC50 [4, 29]
7/7: Mice surviving 60 days/Mice infected and treated [1, 7] | Mice surviving 60 days/Mice infected and treated [1, 8] | Mice surviving 60 days/Mice infected and treated [1, 9] | Mice surviving 60 days/Mice infected and treated [1, 10] | Mice surviving 60 days/Mice infected and treated [1, 11]
17100 ng/mL: IC50 [2, 12]

CCN(CC)CCCC(C)Nc1ccnc2cc(Cl)ccc12 (centres unmarked) [Chloroquine, reference compound]
2920 ng/mL: IC50 ([2]; THLE3, 72 h)
0/7: Mice surviving 60 days/Mice infected and treated [1, 7] | Mice surviving 60 days/Mice infected and treated [1, 8] | Mice surviving 60 days/Mice infected and treated [1, 11]
4/7: Mice surviving 60 days/Mice infected and treated [1, 10]
463: Selectivity IC50 (THLE-3)/IC50 (D6) [2]
108 ng/mL: IC50 ([5]; Plasmodium falciparum, W2, read-out: IC50 W2 Strain)
6.3 ng/mL: IC50 ([4]; Plasmodium falciparum, D6, read-out: IC50 D6 Strain)
2/7: Mice surviving 60 days/Mice infected and treated [1, 9]
